Experimental data reported in patent US20230039816A1, “METHOD FOR INDUCING HEPATOCYTE PLASTICITY” (Public University Corporation Yokohama City University, priority 2019, published 2023).

Tests used:
[1] = test system: old N-Heps (D52-, D62-, D72-, D82-Hep); assay: Plasticity induction of old N-Heps in RM with epigenetic regulators; format: cell-based, human; settings: RM with 0.25 mM NaB, 0.5 mM VPA, 10 μM Trany, 0.5 μM RG108 or 0.5 μM BIX
Description: (§1) The medium was changed on day 1, 3, and 5. To block the PI3K and MAPK signaling pathways, 10 μM LY29002 and a given dose of PD0325902 (0.01 μM˜1 μM) were each added to RM. […] To regulate epigenetic modification, 0.25 mM NaB, 0.5 mM VPA, 10 μM Trany, 0.5 μM RG108 and 0.5 μM BIX were added in RM. The number of cells was analyzed using an Incell analyzer 2000 (GE Healthcare) combined with Hoechst 33342 staining (Invitrogen).

D22-Hep = assay: Induction of proliferation of D22-Hep in reprogramming medium (RM); format: cell-based, human; settings: 6 days in BM+SMs/RM; PD0325901 0.01-1 μM, LY294002 10 μM, DZNep 0.1 μM, FGF2 added to BM+SMs
Description: as §1

PHHs = assay: Plasticity induction of primary human hepatocytes; format: cell-based; settings: PHHs in RM+NaB vs RM
Description: The cryopreserved PHHs were thawed according to the manufacturer's instructions. For the positive control experiments, PHHs were cultured on collagen I-coated culture dishes at a density of 1×10^5 cells/cm^2 using Williams E medium containing 5% FBS, 1 μM dexamethasone, 100 IU/mL penicillin (Thermo Fisher Scientific), 100 μg/mL streptomycin (Thermo Fisher Scientific), 4 μg/mL Human Recombinant Insulin (Sigma), 2 mM GlutaMAX (Thermo Fisher Scientific), and 15 mM HEPES (Sigma). After 24 h, the supernatant from PHHs was collected for ALB analysis. […] At day 0 of culture, 5% FBS was used to improve cell adherence. After 24 h, the medium was exchanged with a fresh medium and subsequently changed every 2 days.

[2] = test system: elderly model (mice fed CDE diet); assay: Induction of hepatic progenitor cells in elderly mice on CDE diet; format: in vivo
Excerpt: Finally, we investigated whether HDACi could improve the induction of hepatic progenitor cells in elderly models. To induce hepatic progenitor cells in mice, we fed young and elderly mice with a choline-deficient, ethionine-supplemented (CDE) diet for 21 days.

EZH2 = EZH2 transcription by Q-PCR in reprogrammed hepatocytes; format: cell-based, human; settings: RM treated D22-Hep
Description: The medium was changed on day 1, 3, and 5. To block the PI3K and MAPK signaling pathways, 10 μM LY29002 and a given dose of PD0325902 (0.01 μM 1 μM) were each added to RM. […] To regulate epigenetic modification, 0.25 mM NaB, 0.5 mM VPA, 10 μM Trany, 0.5 μM RG108 and 0.5 μM BIX were added in RM. […] Total RNA was isolated using a PureLinkTM RNA Mini Kit.

D22-pHC = assay: Hepatocyte differentiation from pHC; format: cell-based, human; settings: HDM with 3 μM RA, 15 days
Description: The hepatocyte differentiation of pHCs was initiated at about 90% confluence. For 8 days, the medium was changed to HDM containing 3 μM RA and for another 7 days, the medium was changed to RA-free HDM. The medium was changed every 2 days. The total hepatocyte differentiation period was 15 days.

Molecule	proliferation of pHCs induced from D52-Heps [1]	induced cellular proliferation of D22-Hep (D22-Hep)	further results
N[C@@H]1C[C@H]1c1ccccc1 (racemic) [tranylcypromine]	such promotion was not detectable	–	–
COc1cc2nc(N3CCCN(C)CC3)nc(NC3CCN(Cc4ccccc4)CC3)c2cc1OC [BIX01294]	such promotion was not detectable	–	–
Cl.Nc1nccc2c1ncn2[C@@H]1C=C(CO)[C@@H](O)[C@H]1O [DZNep, 3-deazaneplanocin A hydrochloride]	–	significant attenuation of the induced cellular proliferation	–
CCCC(=O)[O-].[Na+] [NaB, sodium butyrate]	markedly promoted the proliferation of pHCs	–	plasticity induction efficiency (PHHs): significantly increased the plasticity induction efficiency; survival rate ([2]; CDE diet): improved; induced Ki67 positive and Epcam positive population ([2]; CDE diet 21 days, liver sections): significantly increased
O=C(NOC[C@H](O)CO)c1ccc(F)c(F)c1Nc1ccc(I)cc1F [PD0325901]	–	inhibited the FGF2-mediated cellular proliferation in a dose-dependent manner	EZH2 transcription (EZH2): suppressed
O=C(O)C(Cc1c[nH]c2ccccc12)N1C(=O)c2ccccc2C1=O (stereo not shown) [RG108]	such promotion was not detectable	–	–
CCCC(CCC)C(=O)O [VPA, valproic acid]	markedly promoted the proliferation of pHCs	–	–
CC1=C(/C=C/C(C)=C/C=C/C(C)=C/C(=O)O)C(C)(C)CCC1 [retinoic acid]	–	–	ALB production and hepatocyte morphology (D22-pHC): significant improvement in ALB production and typical hepatocyte morphology
FGF2: Recombinant Human FGF2, member of the FGF family	–	the induced proliferative ability greatly improved	–
